We go through seven test systems from the supplement of paper PMC6045584.

± gives the standard deviation of the averaged measurements.

Compound in assay [1]: CCN(CC)CCCCNc1ncc2cc(-c3cc(OC)cc(OC)c3)c(NC(=O)NC(C)(C)C)nc2n1
As to the kind of experiment: surviving fraction relative to DMSO-only wells; higher = less growth inhibition. As to conditions: exposure time: 5 days. The essentials: (§1)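 Log-phase tumour cell lines, 250–500 cells per well in 384-well plates, received inhibitors at 0.5, 1, 5, 10, 50, 100, 500 and 1000 nM continuously for five days, starting 24 hours after seeding. Viability was quantified with CellTiter-Glo luminescence and normalised to the median of DMSO-only wells to give surviving fraction. Three screens were run per line, and a line stayed in only with replicate Pearson r >0.7 and median Z' >0.3.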

Compound in assay [2]: CS(=O)(=O)c1ccc(C(=O)Nc2ccc(Cl)c(-c3ccccn3)c2)c(Cl)c1 [VISMODEGIB]
The description is as above. As to conditions: exposure time: 5 days. The essentials:
as §1

In the case of SYO1 SYNOVIAL, the surviving fraction came out at 0.786 ± 0.081 in assay [1] (0.5 nM); 0.961 ± 0.052 in assay [1] (1 nM); 0.859 ± 0.044 in assay [1] (5 nM); 0.868 ± 0.043 in assay [1] (10 nM); 0.699 ± 0.016 in assay [1] (50 nM); 0.727 ± 0.056 in assay [1] (100 nM). Besides, the surviving fraction is 0.669 ± 0.055 in assay [1] (500 nM); 0.653 ± 0.009 in assay [1] (1000 nM); 0.953 ± 0.052 in assay [2] (0.5 nM); 0.978 ± 0.049 in assay [2] (1 nM); 0.992 ± 0.014 in assay [2] (5 nM); 0.994 ± 0.054 in assay [2] (10 nM). Besides, the surviving fraction in assay [2] (50 nM) turned out to be 0.879 ± 0.042; in assay [2] (100 nM) it was 0.882 ± 0.041; in assay [2] (500 nM), 0.884 ± 0.045; in assay [2] (1000 nM), 0.898 ± 0.048.

Regarding T47D BREAST, the surviving fraction in assay [1] (0.5 nM) is 0.967 ± 0.03; in assay [1] (1 nM) it was 1.02 ± 0.028; in assay [1] (5 nM), 1.02 ± 0.047; in assay [1] (10 nM) it was 1.01 ± 0.017; in assay [1] (50 nM), 1.03 ± 0.023; in assay [1] (100 nM), 1.02 ± 0.043. In addition, the surviving fraction came out at 1.02 ± 0.054 in assay [1] (500 nM); 1.08 ± 0.03 in assay [1] (1000 nM); 0.993 ± 0.034 in assay [2] (0.5 nM); 0.965 ± 0.049 in assay [2] (1 nM); 1.01 ± 0.025 in assay [2] (5 nM); 0.988 ± 0.012 in assay [2] (10 nM). Also, the surviving fraction in assay [2] (50 nM) turned out to be 0.99 ± 0.035; in assay [2] (100 nM), 1.07 ± 0.015; in assay [2] (500 nM), 0.983 ± 0.013; in assay [2] (1000 nM) it was 0.989 ± 0.025.

As to U2OS BONE, the surviving fraction in assay [1] (0.5 nM) came out at 1 ± 0.011; in assay [1] (1 nM) it was 0.994 ± 0.026; in assay [1] (5 nM), 1.03 ± 0.045; in assay [1] (10 nM), 1.01 ± 0.02; in assay [1] (50 nM), 0.916 ± 0.012; in assay [1] (100 nM) it was 0.825 ± 0.017. In addition, the surviving fraction in assay [1] (500 nM) stood at 0.745 ± 0.049; in assay [1] (1000 nM), 0.739 ± 0.0095; in assay [2] (0.5 nM), 1.04 ± 0.019; in assay [2] (1 nM) it was 1.07 ± 0.042; in assay [2] (5 nM), 1.09 ± 0.012; in assay [2] (10 nM), 1.05 ± 0.013. Moreover, the surviving fraction worked out at 1.02 ± 0.065 in assay [2] (50 nM), 1.04 ± 0.046 in assay [2] (100 nM), 1.05 ± 0.028 in assay [2] (500 nM) and 1.07 ± 0.024 in assay [2] (1000 nM).

Consider VCAP PROSTATE, for which the surviving fraction in assay [1] (0.5 nM) was found to be 0.963 ± 0.068; in assay [1] (1 nM), 1.07 ± 0.06; in assay [1] (5 nM), 1.04 ± 0.047; in assay [1] (10 nM), 1.1 ± 0.028; in assay [1] (50 nM) it was 1.06 ± 0.034; in assay [1] (100 nM), 1.12 ± 0.069. Besides, the surviving fraction in assay [1] (500 nM) worked out at 0.998 ± 0.059; in assay [1] (1000 nM) it was 1.01 ± 0.055; in assay [2] (0.5 nM), 1.04 ± 0.046; in assay [2] (1 nM) it was 1 ± 0.11; in assay [2] (5 nM) it was 1.1 ± 0.18; in assay [2] (10 nM), 1.13 ± 0.22. Further, the surviving fraction in assay [2] (50 nM) was found to be 0.905 ± 0.033; in assay [2] (100 nM), 1.08 ± 0.12; in assay [2] (500 nM), 0.914 ± 0.066; in assay [2] (1000 nM), 0.981 ± 0.1.

For the test system VP229 BREAST, the surviving fraction in assay [1] (0.5 nM) was 1.15 ± 0.079; in assay [1] (1 nM), 1.09 ± 0.031; in assay [1] (5 nM) it was 1.1 ± 0.12; in assay [1] (10 nM), 1.11 ± 0.028; in assay [1] (50 nM) it was 1.22 ± 0.12; in assay [1] (100 nM), 1.11 ± 0.13. Moreover, the surviving fraction came out at 1.22 ± 0.061 in assay [1] (500 nM); 1.15 ± 0.11 in assay [1] (1000 nM); 1.27 ± 0.025 in assay [2] (0.5 nM); 1.1 ± 0.065 in assay [2] (1 nM); 1.15 ± 0.13 in assay [2] (5 nM); 1.14 ± 0.082 in assay [2] (10 nM). In addition, the surviving fraction in assay [2] (50 nM) came to 0.972 ± 0.14; in assay [2] (100 nM), 1.01 ± 0.017; in assay [2] (500 nM), 1.15 ± 0.16; in assay [2] (1000 nM), 1.11 ± 0.014.

For the test system YAMATO SYNOVIAL, the surviving fraction in assay [1] (0.5 nM) turned out to be 0.852 ± 0.029; in assay [1] (1 nM), 1.2 ± 0.13; in assay [1] (5 nM), 1.19 ± 0.058; in assay [1] (10 nM), 1.31 ± 0.062; in assay [1] (50 nM), 1.14 ± 0.024; in assay [1] (100 nM), 1.37 ± 0.037. The surviving fraction turned out to be 1.2 ± 0.069 in assay [1] (500 nM); 1.08 ± 0.088 in assay [1] (1000 nM); 1.24 ± 0.083 in assay [2] (0.5 nM); 1.26 ± 0.099 in assay [2] (1 nM); 1.34 ± 0.087 in assay [2] (5 nM); 1.37 ± 0.067 in assay [2] (10 nM). The surviving fraction in assay [2] (50 nM) was determined as 0.917 ± 0.031; in assay [2] (100 nM), 0.967 ± 0.15; in assay [2] (500 nM), 0.805 ± 0.066; in assay [2] (1000 nM), 0.82 ± 0.12.

As to ZR751 BREAST, the surviving fraction came out at 0.946 ± 0.032 in assay [1] (0.5 nM); 1.03 ± 0.063 in assay [1] (1 nM); 0.954 ± 0.017 in assay [1] (5 nM); 1.01 ± 0.19 in assay [1] (10 nM); 0.912 ± 0.04 in assay [1] (50 nM); 1.1 ± 0.11 in assay [1] (100 nM). Moreover, the surviving fraction in assay [1] (500 nM) turned out to be 1.01 ± 0.067; in assay [1] (1000 nM), 1.05 ± 0.12; in assay [2] (0.5 nM), 0.853 ± 0.06; in assay [2] (1 nM), 0.937 ± 0.16; in assay [2] (5 nM), 0.799 ± 0.15; in assay [2] (10 nM), 0.971 ± 0.12. Besides, the surviving fraction in assay [2] (50 nM) turned out to be 0.756 ± 0.036; in assay [2] (100 nM), 0.857 ± 0.037; in assay [2] (500 nM) it was 0.835 ± 0.15; in assay [2] (1000 nM), 0.945 ± 0.06.
